According to PubChem BioAssay (NCI):
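Compound exposure: 48 hours, 5 concentrations, 96-well plates. The concentration for full growth arrest is given as TGI.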

How the values were obtained:
Test in all cases: NCI-60 cell line screen, 48 h
U251 CNS = system: U251 CNS
SNB-19 CNS = system: SNB-19 CNS
DU-145 prostate = system: DU-145 prostate
A549 NSCLC = system: A549 NSCLC
SF-539 CNS = system: SF-539 CNS
OVCAR-8 ovarian = system: OVCAR-8 ovarian
EKVX NSCLC = system: EKVX NSCLC
M14 melanoma = system: M14 melanoma
SF-295 CNS = system: SF-295 CNS
SN12C renal = system: SN12C renal
HOP-62 NSCLC = system: HOP-62 NSCLC
MDA-N = system: MDA-N
OVCAR-3 ovarian = system: OVCAR-3 ovarian
T-47D breast = system: T-47D breast
KM12 colon = system: KM12 colon
SK-MEL-2 melanoma = system: SK-MEL-2 melanoma
COLO 205 colon = system: COLO 205 colon
HL-60(TB) leukemia = system: HL-60(TB) leukemia
CAKI-1 renal = system: CAKI-1 renal
TK-10 renal = system: TK-10 renal
HCT-15 colon = system: HCT-15 colon
UACC-257 melanoma = system: UACC-257 melanoma
RPMI-8226 leukemia = system: RPMI-8226 leukemia
LOX IMVI melanoma = system: LOX IMVI melanoma
NCI/ADR-RES ovarian = system: NCI/ADR-RES ovarian
SNB-75 CNS = system: SNB-75 CNS
HCT-116 colon = system: HCT-116 colon
NCI-H460 lung = system: NCI-H460 lung
HOP-92 NSCLC = system: HOP-92 NSCLC
OVCAR-4 ovarian = system: OVCAR-4 ovarian
CCRF-CEM leukemia = system: CCRF-CEM leukemia
SR leukemia = system: SR leukemia
MCF7 breast = system: MCF7 breast
SK-MEL-5 melanoma = system: SK-MEL-5 melanoma
BT-549 breast = system: BT-549 breast
HCC-2998 colon = system: HCC-2998 colon
HS 578T breast = system: HS 578T breast
SF-268 CNS = system: SF-268 CNS
NCI-H23 lung = system: NCI-H23 lung
NCI-H522 lung = system: NCI-H522 lung
UO-31 renal = system: UO-31 renal
786-0 renal = system: 786-0 renal
MDA-MB-231 breast = system: MDA-MB-231 breast
K-562 leukemia = system: K-562 leukemia
MDA-MB-435 = system: MDA-MB-435
IGROV1 ovarian = system: IGROV1 ovarian
SK-MEL-28 melanoma = system: SK-MEL-28 melanoma
PC-3 prostate = system: PC-3 prostate
ACHN renal = system: ACHN renal
RXF 393 renal = system: RXF 393 renal
MALME-3M melanoma = system: MALME-3M melanoma
HT29 colon = system: HT29 colon
SK-OV-3 ovarian = system: SK-OV-3 ovarian
UACC-62 melanoma = system: UACC-62 melanoma
SW-620 colon = system: SW-620 colon
OVCAR-5 ovarian = system: OVCAR-5 ovarian
A498 renal = system: A498 renal
NCI-H226 lung = system: NCI-H226 lung
MOLT-4 leukemia = system: MOLT-4 leukemia
HOP-18 NSCLC = system: HOP-18 NSCLC
KM20L2 colon = system: KM20L2 colon
DLD-1 colon = system: DLD-1 colon
M19-MEL melanoma = system: M19-MEL melanoma
LXFL 529 NSCLC = system: LXFL 529 NSCLC
SNB-78 CNS = system: SNB-78 CNS
DMS 114 small cell lung = system: DMS 114 small cell lung
DMS 273 small cell lung = system: DMS 273 small cell lung
XF 498 CNS = system: XF 498 CNS

Measured: TGI

Nc1cc(S(=O)(=O)O)cc2ccc(S(=O)(=O)O)cc12
not listed: NCI-H226 lung | MOLT-4 leukemia | HOP-18 NSCLC | KM20L2 colon | DLD-1 colon | M19-MEL melanoma | LXFL 529 NSCLC | SNB-78 CNS | DMS 114 small cell lung | DMS 273 small cell lung | XF 498 CNS
> 100 µM: all other assays above

C[N+]1(CCC(=O)c2ccccc2)CCC2CCC(C2)C1 (configuration not stated)
not listed: HOP-18 NSCLC | KM20L2 colon | DLD-1 colon | M19-MEL melanoma | LXFL 529 NSCLC | SNB-78 CNS | DMS 114 small cell lung | DMS 273 small cell lung | XF 498 CNS
> 100 µM: all other assays above

CC(NC1CCCC[C@H]1O)c1ccccc1 (some centres not stated)
not listed: DU-145 prostate | SF-539 CNS | OVCAR-8 ovarian | EKVX NSCLC | SF-295 CNS | SN12C renal | MDA-N | OVCAR-3 ovarian | T-47D breast | KM12 colon | HL-60(TB) leukemia | TK-10 renal | HCT-15 colon | LOX IMVI melanoma | NCI/ADR-RES ovarian | CCRF-CEM leukemia | SR leukemia | MCF7 breast | BT-549 breast | HS 578T breast | SF-268 CNS | NCI-H23 lung | NCI-H522 lung | MDA-MB-231 breast | K-562 leukemia | MDA-MB-435 | PC-3 prostate | RXF 393 renal | A498 renal | DMS 114 small cell lung | DMS 273 small cell lung | XF 498 CNS
> 100 µM: all other assays above

COc1ccc(NC(=O)CC(=O)NNC(Sc2ccccc2)c2cc(N=Nc3ccc(Br)cc3)ccc2O)cc1 (configuration not stated)
not listed: HOP-18 NSCLC | KM20L2 colon | DLD-1 colon | M19-MEL melanoma | LXFL 529 NSCLC | SNB-78 CNS | DMS 114 small cell lung | DMS 273 small cell lung | XF 498 CNS
> 10 µM: all other assays above

Cc1nc(C)c(N2CCN(C(=O)O)CC2)c(=O)[nH]1
not listed: SK-MEL-2 melanoma | SNB-75 CNS | OVCAR-5 ovarian | HOP-18 NSCLC | KM20L2 colon | DLD-1 colon | M19-MEL melanoma | LXFL 529 NSCLC | SNB-78 CNS | DMS 114 small cell lung | DMS 273 small cell lung | XF 498 CNS
> 100 µM: all other assays above

CC(=O)C1(C)CC(C#N)(C#N)C(C#N)=C1N (configuration not stated)
85.2 µM: EKVX NSCLC
55.3 µM: HOP-92 NSCLC
not listed: NCI-H460 lung | SK-MEL-28 melanoma | HOP-18 NSCLC | KM20L2 colon | DLD-1 colon | M19-MEL melanoma | LXFL 529 NSCLC | SNB-78 CNS | DMS 114 small cell lung | DMS 273 small cell lung | XF 498 CNS
> 100 µM: all other assays above

Clc1ccc(OCc2nnc3n2N=C(c2ccc(Br)cc2)CS3)cc1
82 µM: NCI-H460 lung
66.9 µM: SK-MEL-2 melanoma
24.5 µM: SF-539 CNS
81.1 µM: SNB-78 CNS
35.6 µM: TK-10 renal
61.8 µM: RXF 393 renal
54 µM: DMS 114 small cell lung
19.6 µM: UO-31 renal
21.4 µM: XF 498 CNS
34.6 µM: SK-OV-3 ovarian
46 µM: LOX IMVI melanoma
> 100 µM: U251 CNS | A549 NSCLC | OVCAR-8 ovarian | NCI-H226 lung | SN12C renal | KM12 colon | HL-60(TB) leukemia | HCT-15 colon | RPMI-8226 leukemia | HCT-116 colon | CCRF-CEM leukemia | SR leukemia | DMS 273 small cell lung | HCC-2998 colon | NCI-H23 lung | M19-MEL melanoma | MOLT-4 leukemia | 786-0 renal | K-562 leukemia | SK-MEL-28 melanoma | ACHN renal | MALME-3M melanoma | HT29 colon | UACC-62 melanoma | SW-620 colon | OVCAR-5 ovarian
75.1 µM: SNB-19 CNS
41 µM: HOP-92 NSCLC
83.3 µM: UACC-257 melanoma
70.3 µM: LXFL 529 NSCLC
37.7 µM: SF-295 CNS
25.7 µM: A498 renal
